Results: ChEMBL document CHEMBL2034892, “The relevance of higher plants in lead compound discovery programs” (J Nat Prod, 2011)
Converted amounts (≈) assume the structure as drawn. Values belong to the compound of their own block, whether it stands above or below them.

How the values were obtained:
[1] = test system: HT-29; experiment: Cytotoxicity against human HT-29 cells; format: functional; settings: read-out: ED50 (the source's name)
[2] = test system: KB; experiment: Cytotoxicity against human KB cells; format: functional, cell-based
[3] = target: T1, Taste receptor type 2 member 31 (Homo sapiens, UniProt P59538); experiment: Inhibition of human TAS2R31 receptor expressed in HEK293T cells overexpressing chimeric G-protein alpha-subunit; format: cell-based, HEK-293T
T1 sequence (P59538 whole entry): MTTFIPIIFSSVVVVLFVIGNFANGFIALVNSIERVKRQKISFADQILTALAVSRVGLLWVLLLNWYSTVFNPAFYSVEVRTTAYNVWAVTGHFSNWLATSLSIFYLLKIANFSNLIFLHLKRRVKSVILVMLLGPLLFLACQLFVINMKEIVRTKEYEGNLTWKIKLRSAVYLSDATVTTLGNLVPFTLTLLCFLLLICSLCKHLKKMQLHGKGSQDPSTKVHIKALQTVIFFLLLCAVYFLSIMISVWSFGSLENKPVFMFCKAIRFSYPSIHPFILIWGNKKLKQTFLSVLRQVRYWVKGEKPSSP

[4] = test system: P388; experiment: Antitumor activity against mouse P388 cells xenografted in mouse assessed as increase in life span at 2 mg/kg, iv dosed twice daily for 5 days
[5] = test system: P388; experiment: Antitumor activity against mouse P388 cells xenografted in mouse assessed as increase in life span at 2.5 mg/kg, ip dosed daily for 5 days; format: functional; settings: route intraperitoneal
[6] = Systemic availability in ip dosed C57BL/6 mouse; format: ADME, organism-based; settings: in vivo
[7] = Oral bioavailability in C57BL/6 mouse; format: ADME, organism-based; settings: in vivo
[8] = Inhibition of proteasome; format: subcellular

Structure (SMILES): CC(C)=CCc1c2c(c(O)c3c1O[C@]14C(=C[C@@H]5C[C@H]1C(C)(C)O[C@@]4(C/C=C(/C)C(=O)O)C5=O)C3=O)C=CC(C)(C)O2
EC50 [1]: 360 nM

Structure (SMILES): Oc1ccc([C@H]2c3c(O)cc4c(c3[C@@H]3c5c(O)cc6c(c5[C@H]2[C@@H]3c2ccc(O)cc2)[C@H](c2cc(O)cc(O)c2)[C@@H](c2ccc(O)cc2)O6)[C@@H](c2cc(O)cc(O)c2)[C@H](c2ccc(O)cc2)O4)cc1 [VATDIOSPYROIDOL]
EC50 [2]: 1 µg/mL (≈ 1.1 µM)

Structure (SMILES): COc1cc([C@@H]2CC(=O)c3c(O)cc(O)cc3O2)ccc1OC(=O)C(C)C
IC50 [3]: 2000 nM

Structure (SMILES): COC(=O)[C@H]1[C@@H](O)[C@@]2(O)c3c(OC)cc(O[C@@H]4O[C@@H]([C@H](O)CO)CO[C@H]4OC)cc3O[C@@]2(c2ccc(OC)cc2)[C@@H]1c1ccccc1 [SILVESTROL]
T/C [4]: 129%
T/C [5]: 150%
bioavailability [6]: 100%
bioavailability [7]: 1.7%

Structure (SMILES): COc1cc2c(c(O)c1OC)C(=O)C[C@@H](c1ccc(O)cc1)O2
IC50 [3]: 2500 nM

More lines, now with the values ahead:

IC50 [3]: 11300 nM
Structure (SMILES): COc1cc(-c2cc(=O)c3c(O)c(OC)c(O)cc3o2)ccc1O [JACEOSIDINE]

IC50 [3]: 3600 nM
Structure (SMILES): COc1cc(O)c2c(c1)O[C@H](c1ccc(O)cc1)CC2=O [SAKURANETIN]

IC50 [8]: 1300 nM
Structure (SMILES): O=C1c2c(O)cc(O)cc2O[C@H](c2ccc(O)cc2)[C@H]1c1c(O)cc(O)c2c(=O)cc(-c3ccc(O)c(O)c3)oc12 [MORELLOFLAVONE]
